Test results taken from ChEMBL document CHEMBL5329194, “Design, Synthesis, and Evaluation of 18F-Labeling CYP1B1 PET Tracer Based on 2-Phenylquinazolin” (Bioorg Med Chem Lett, 2023).
pIC50: −log10 of the molar value.

Columns and labels:
Format in all cases: ADME
Cytochrome P450 1A2 = biological target: T1, Cytochrome P450 1A2 (Homo sapiens, UniProt P05177); assay: Inhibition of CYP1A2 (unknown origin)
T1 sequence (P05177 whole entry): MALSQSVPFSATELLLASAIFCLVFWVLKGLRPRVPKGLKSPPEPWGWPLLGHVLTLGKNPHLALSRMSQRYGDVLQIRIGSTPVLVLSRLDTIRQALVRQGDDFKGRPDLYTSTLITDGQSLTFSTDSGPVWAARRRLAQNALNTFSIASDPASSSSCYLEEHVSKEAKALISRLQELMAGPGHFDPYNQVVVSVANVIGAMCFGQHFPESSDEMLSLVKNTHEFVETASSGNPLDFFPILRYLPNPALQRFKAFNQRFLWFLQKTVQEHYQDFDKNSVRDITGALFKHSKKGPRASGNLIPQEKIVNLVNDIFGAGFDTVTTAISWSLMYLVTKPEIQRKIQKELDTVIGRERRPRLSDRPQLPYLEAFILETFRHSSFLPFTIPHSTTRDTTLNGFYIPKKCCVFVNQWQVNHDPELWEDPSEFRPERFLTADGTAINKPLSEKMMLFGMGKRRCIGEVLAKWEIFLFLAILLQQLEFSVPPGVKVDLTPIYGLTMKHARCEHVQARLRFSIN

Cytochrome P450 1B1 = biological target: T2, Cytochrome P450 1B1 (Homo sapiens, UniProt Q16678); assay: Inhibition of CYP1B1 (unknown origin) by EROD assay
T2 sequence (Q16678 whole entry): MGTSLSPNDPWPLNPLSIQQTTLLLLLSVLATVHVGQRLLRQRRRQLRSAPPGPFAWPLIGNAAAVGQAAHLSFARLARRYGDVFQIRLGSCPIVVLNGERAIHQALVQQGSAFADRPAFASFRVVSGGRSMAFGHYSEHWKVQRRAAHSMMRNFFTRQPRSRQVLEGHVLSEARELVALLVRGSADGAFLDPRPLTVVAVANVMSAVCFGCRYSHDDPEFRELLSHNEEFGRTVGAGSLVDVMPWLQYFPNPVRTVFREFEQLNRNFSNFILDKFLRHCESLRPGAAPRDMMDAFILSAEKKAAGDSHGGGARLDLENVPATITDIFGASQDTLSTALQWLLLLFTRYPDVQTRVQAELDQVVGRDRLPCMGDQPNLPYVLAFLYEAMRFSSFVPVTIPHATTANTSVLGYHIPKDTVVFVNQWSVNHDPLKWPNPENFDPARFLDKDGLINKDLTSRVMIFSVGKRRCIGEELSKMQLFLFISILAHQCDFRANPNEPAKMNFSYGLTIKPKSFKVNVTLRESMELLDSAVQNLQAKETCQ

Cytochrome P450 1A1 = biological target: T3, Cytochrome P450 1A1 (Homo sapiens, UniProt P04798); assay: Inhibition of CYP1A1 (unknown origin)
T3 sequence (P04798 whole entry): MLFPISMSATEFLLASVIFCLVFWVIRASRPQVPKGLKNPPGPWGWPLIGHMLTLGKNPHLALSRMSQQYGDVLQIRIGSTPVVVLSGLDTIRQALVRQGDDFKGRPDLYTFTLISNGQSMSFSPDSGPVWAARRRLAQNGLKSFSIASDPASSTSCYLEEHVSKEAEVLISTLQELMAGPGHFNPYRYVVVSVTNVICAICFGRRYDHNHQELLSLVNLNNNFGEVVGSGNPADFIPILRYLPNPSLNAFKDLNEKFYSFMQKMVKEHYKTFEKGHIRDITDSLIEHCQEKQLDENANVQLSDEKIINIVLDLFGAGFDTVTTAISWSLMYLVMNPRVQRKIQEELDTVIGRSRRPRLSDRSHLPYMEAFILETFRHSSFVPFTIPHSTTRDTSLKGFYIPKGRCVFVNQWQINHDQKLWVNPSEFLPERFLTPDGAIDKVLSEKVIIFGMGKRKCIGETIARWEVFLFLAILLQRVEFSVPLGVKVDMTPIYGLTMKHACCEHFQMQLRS

pIC50 (Cytochrome P450 1A2): < 6.00 | pIC50 (Cytochrome P450 1B1): < 6.00 | pIC50 (Cytochrome P450 1A1): < 6.00
SMILES: Oc1nc(-c2ccc(F)cc2)nc2ccccc12
